Counter-ions that a name gives are not always drawn.
Assays:
Mus musculus [1] = test: Antinociceptive activity in sc dosed mouse by hot-plate assay; type: functional
Mus musculus [2] = test: Antinociceptive activity in sc dosed mouse by Nilsen assay; type: functional

## CN1CC[C@]23CCCC[C@H]2[C@H]1Cc1ccc(O)cc13
Mus musculus [1]
  ED50: 0.5 µmol/kg
Mus musculus [2]
  ED50: 0.5 µmol/kg

## CN1CC[C@]23c4c5ccc(O)c4O[C@H]2[C@@H](O)C=C[C@H]3[C@H]1C5
Mus musculus [1]
  ED50: 3.3 µmol/kg
Mus musculus [2]
  ED50: 4.1 µmol/kg

## O[C@H]1CC[C@H]2[C@H]3Cc4cccc5c4[C@@]2(CCN3)[C@H]1O5
Mus musculus [1]
  ED50: 45.3 µmol/kg
Mus musculus [2]
  ED50: 67.8 µmol/kg

## CN1CC[C@]23c4c5cccc4O[C@H]2[C@@H](O)CC[C@H]3[C@H]1C5
Mus musculus [1]
  ED50: 4.2 µmol/kg
Mus musculus [2]
  ED50: 8.1 µmol/kg

## CN1CC[C@]23c4c5cccc4O[C@H]2C(=O)CC[C@H]3[C@H]1C5
Mus musculus [1]
  ED50: 1.8 µmol/kg
Mus musculus [2]
  ED50: 2.8 µmol/kg

## C=CCN1CC[C@]23c4c5cccc4O[C@H]2[C@@H](O)CC[C@H]3[C@H]1C5
Mus musculus [1]
  ED50: 44 µmol/kg
Mus musculus [2]
  ED50: 59.9 µmol/kg

## c1cc2c3c(c1)O[C@H]1CCC[C@H]4[C@@H](C2)NCC[C@]314
Mus musculus [1]
  ED50: 1.3 µmol/kg
Mus musculus [2]
  ED50: 4.4 µmol/kg

## CN1CC[C@]23c4c5ccc(O)c4O[C@H]2CCC[C@H]3[C@H]1C5
Mus musculus [1]
  ED50: 0.14 µmol/kg

## CN1CC[C@]23c4c5ccc(O)c4O[C@H]2[C@@H](O)CC[C@H]3[C@H]1C5
Mus musculus [1]
  ED50: 2.5 µmol/kg

## CN1CC[C@]23c4c5cccc4O[C@H]2[C@@H](O)C=C[C@H]3[C@H]1C5
Mus musculus [1]
  ED50: 8.6 µmol/kg
Mus musculus [2]
  ED50: 30.9 µmol/kg

## CN1CCC23CCCCC2C1Cc1ccccc13 (racemic)
Mus musculus [1]
  ED50: 16.5 µmol/kg

## CN1CC[C@]23c4c5ccc(O)c4O[C@H]2C(=O)CC[C@H]3[C@H]1C5 [HYDROMORPHONE HYDROCHLORIDE]
Mus musculus [1]
  ED50: 0.4 µmol/kg
Mus musculus [2]
  ED50: 0.7 µmol/kg

## C=CCN1CC[C@]23c4c5ccc(O)c4O[C@H]2[C@@H](O)C=C[C@H]3[C@H]1C5 [NALORPHINE HYDROCHLORIDE]
Mus musculus [1]
  ED50: 105 µmol/kg
Mus musculus [2]
  ED50: 13.8 µmol/kg
